Where two headings read alike, the source gives them in different places. Bounds are passed on as bounds.

For orientation: Kd means a measure of binding affinity in units of concentration. Broadly, the IC50 is the midpoint of a concentration-inhibition curve. Broadly, the Km is the substrate concentration at which the rate is half of its maximum.

One series has as its target T1, C. difficile CamA (Clostridioides difficile, UniProt Q183J3).
T1 sequence (Q183J3 1-577): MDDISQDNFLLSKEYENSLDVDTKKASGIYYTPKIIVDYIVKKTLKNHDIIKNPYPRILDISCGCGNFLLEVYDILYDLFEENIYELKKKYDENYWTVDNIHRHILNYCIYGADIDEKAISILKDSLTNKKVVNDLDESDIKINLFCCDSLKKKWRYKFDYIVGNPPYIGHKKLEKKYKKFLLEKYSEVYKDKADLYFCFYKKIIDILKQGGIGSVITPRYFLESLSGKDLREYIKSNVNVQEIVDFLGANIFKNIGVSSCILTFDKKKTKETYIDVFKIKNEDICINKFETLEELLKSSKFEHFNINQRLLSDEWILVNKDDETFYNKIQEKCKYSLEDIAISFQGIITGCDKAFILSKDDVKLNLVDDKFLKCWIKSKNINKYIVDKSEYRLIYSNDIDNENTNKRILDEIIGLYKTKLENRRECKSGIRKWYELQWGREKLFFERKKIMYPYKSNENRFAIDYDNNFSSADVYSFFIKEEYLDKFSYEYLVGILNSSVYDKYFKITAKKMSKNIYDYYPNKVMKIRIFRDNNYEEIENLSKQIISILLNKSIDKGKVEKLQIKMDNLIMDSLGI
The series can be described thus: CamA methylation inhibition assay. Format: biochemical. Particulars: for Relative inhibition of CamA activity at a single inhibitor concentration: 50 μM inhibitor.

The target of series [1] is T2, CamA (Clostridioides difficile, UniProt Q183J3).
T2 sequence (Q183J3 1-577): T1 sequence (Q183J3 1-577)
The series can be described thus: ITC binding of inhibitors to CamA.

In series [2] the target is T2, CamA. Conditions: cited from earlier work.
For the next series, the target named is M.TaqI. Conditions: read-out: KD of SAM for M.TaqI; cited from earlier work.
In the next series the test system is phage T4 Dam. Particulars: read-out: Km of SAM for phage T4 Dam; cited from earlier work.
A further series concerns E. coli Dam. Conditions: read-out: Km of SAM for E. coli Dam; cited from earlier work.
In a further series the test system is PRMT7. Particulars: read-out: IC50 PRMT7 activity; cited from earlier work.
For series [3], the system named is four human RNA adenine MTases and two bacterial DNA adenine MTases. The experiment in a line: Selectivity: in vitro inhibition of other class I MTases. Format: biochemical. Particulars: four human RNA adenine MTases and two bacterial DNA adenine MTases (Figure 5).
Series [4] has as its target T3, CamA (DNA adenine methyltransferase, plasmid pXC2184) (Clostridioides difficile, UniProt Q183J3 1-577).
T3 sequence: T1 sequence (Q183J3 1-577)
The experiment in a line: X-ray crystallography.

On to `CC(C)N(CCCNC(=O)Nc1ccc(C(C)(C)C)cc1)C[C@H]1O[C@@H](n2ccc3c(N)ncnc32)[C@H](O)[C@@H]1O` [EPZ004777], for which, at C. difficile CamA, the “Relative inhibition of CamA activity at a single inhibitor concentration” value (from here on “Relative inhibition of CamA activity”) is on record as “notable inhibition”.

For `CC(C)N(C[C@H]1O[C@@H](n2cnc3c(N)ncnc32)[C@H](O)[C@@H]1O)[C@H]1C[C@@H](CCc2nc3cc(C(C)(C)C)ccc3[nH]2)C1` [EPZ5676, pinometostat], the Kd at CamA [1] is > 50 µM. On C. difficile CamA, the IC50 was > 250 µM and the “Relative inhibition of CamA activity” value is recorded as “failed to inhibit CamA”.

Take `Nc1ncnc2c1ccn2[C@@H]1O[C@H]([C@H](O)c2ccccc2)[C@@H](O)[C@H]1O` [LLY-283]: on C. difficile CamA, the “Relative inhibition of CamA activity” value is recorded as “much weaker inhibition than sinefungin”.

`C[S+](CC[C@H](N)C(=O)[O-])C[C@H]1O[C@@H](n2cnc3c(N)ncnc32)[C@H](O)[C@@H]1O` (stereo partly drawn) [SAM, S-adenosyl-L-methionine]: the equilibrium dissociation constant (Kd) at CamA [2] (read-out: KD of SAM binding by CamA) was 35 µM; on M.TaqI, 2 µM. The Km is > 17 µM at CamA [2] (read-out: Km of SAM for CamA), 0.5 µM in the series with phage T4 Dam and 3 to 6 µM in the series with E. coli Dam.

On to `NCCCSC[C@H]1O[C@@H](n2cnc3c(N)ncnc32)[C@H](O)[C@@H]1O` [SGC0911], for which, in the series on PRMT7, the IC50 is 1 µM.

As to `CC(C)N(CCCNC(=O)Nc1ccc(C(C)(C)C)cc1)C[C@H]1O[C@@H](n2cc(Br)c3c(N)ncnc32)[C@H](O)[C@@H]1O` [SGC0946], in series [3], the “in vitro inhibition against six distinct MTase enzymes” value is listed as ~ 50%. Further, the Kd on CamA [1] amounted to 6.3 µM. The “Fold stronger binding to CamA (KD) than EPZ004777” value on CamA [1] (SGC0946 vs. EPZ004777) is reported as ~ 3 X. Further, on C. difficile CamA, the IC50 stood at 4.7 µM and the “Relative inhibition of CamA activity” value was “notable inhibition”. Also, the “Fold more potent inhibition of CamA (IC50) than EPZ004777” value at C. difficile CamA (SGC0946 vs. EPZ004777) was ~ 9 X.

`CC1=C(C)C(=O)C(C(C)(C)CC(=O)N(CCCCSC[C@H]2O[C@@H](n3cnc4c(N)ncnc43)[C@H](O)[C@@H]2O)Cc2cccc(-c3ccc(Cl)cc3)c2)=C(C)C1=O` [SGC3027]: the “Relative inhibition of CamA activity” value at C. difficile CamA is listed as “does not possess in vitro inhibitory activity”.

B1: 14-bp CamA co-crystallization duplex (dsDNA)
DNA 1: TTCAAAAAGTCCCA
DNA 2: ATGGGACTTTTTGA
In the case of B1, the binding result in series [4] was “binds”.

The values above are taken from article PMC9487755 (Epigenetics, 2021).
